We go through 17 compounds from patent US20230303570A1, “KINASE INHIBITORS AND USES THEREOF” (ABM Therapeutics Corporation, priority 2020, published 2023).

A short description of series [1]: Mouse pharmacokinetics study (intravenous and oral). Format: in vivo. The conditions noted are these: CD-1 mice; for AUC / Cmax / Tmax / Vd / half-life / clearance: mouse, plasma; for AUC / Cmax / Tmax / F: PO 25 mg/kg; for Vd / half-life / clearance: IV 5 mg/kg; for clearance: read-out: Clp. From the text: The test articles were formulated in […] Hydroxypropyl-beta-cyclodextrin, either as a clear solution or fine suspension.

The target in a further series is HPK1 (MAP4K1) (Homo sapiens, UniProt Q92918). Kind of series: HPK1 (MAP4K1) kinase Lantha screen assay. Format: biochemical. The procedure, abridged: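 Recombinant MAP4K1 preincubated 10 min with compound (6-point dilution, duplicates) in 50 mM HEPES pH 7.5, 10 mM MgCl2, then reacted with Fluorescein-PKC substrate and ATP for 90 min at room temperature. Antibody detection solution stopped reaction; after 60 min, TR-FRET read at ex 340 nm, em 520/495 nm.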

The target in the next series is T1, SRC (Homo sapiens, UniProt P12931).
T1 construct: purchased Carna Biosciences
Nature of the series: In vitro kinase assay, SRC (Caliper EZ Reader conversion). Format: biochemical.

The next series addresses PAK1 (Homo sapiens, UniProt Q13153). Kind of series: In vitro kinase assay, PAK1 (Caliper EZ Reader conversion). Format: biochemical. More on the design: purchased Carna Biosciences. An outline of the steps: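 Human PAK1 was preincubated with compound (6 concentrations, 4-fold dilutions) for 10 min at room temperature, then reacted with substrate mix for 30 and 60 min. Substrate conversion was read by Caliper mobility shift. IC50 was fitted by variable-slope log(inhibitor)–response, normalised to FRAX597 and buffer controls.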

Read-outs that look alike come from different tables or passages of the source. Bounds are passed on as bounds.

Chain of PAK1 (Q13153 whole entry): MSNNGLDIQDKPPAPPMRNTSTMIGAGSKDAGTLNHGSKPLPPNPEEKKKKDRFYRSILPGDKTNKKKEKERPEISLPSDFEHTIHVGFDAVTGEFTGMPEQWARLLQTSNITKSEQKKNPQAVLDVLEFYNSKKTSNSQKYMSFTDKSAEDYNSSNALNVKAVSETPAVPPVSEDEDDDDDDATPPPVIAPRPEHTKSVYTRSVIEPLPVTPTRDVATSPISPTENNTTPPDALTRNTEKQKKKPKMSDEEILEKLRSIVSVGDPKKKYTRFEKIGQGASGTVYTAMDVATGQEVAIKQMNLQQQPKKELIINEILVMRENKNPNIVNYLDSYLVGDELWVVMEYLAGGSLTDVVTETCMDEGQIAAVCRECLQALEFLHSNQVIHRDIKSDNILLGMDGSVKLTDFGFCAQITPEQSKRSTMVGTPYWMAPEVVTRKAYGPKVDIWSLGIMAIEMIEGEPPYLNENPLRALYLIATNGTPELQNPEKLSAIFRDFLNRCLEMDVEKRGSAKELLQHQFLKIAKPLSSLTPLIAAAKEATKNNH
Chain of HPK1 (MAP4K1) (Q92918 whole entry, species assumed): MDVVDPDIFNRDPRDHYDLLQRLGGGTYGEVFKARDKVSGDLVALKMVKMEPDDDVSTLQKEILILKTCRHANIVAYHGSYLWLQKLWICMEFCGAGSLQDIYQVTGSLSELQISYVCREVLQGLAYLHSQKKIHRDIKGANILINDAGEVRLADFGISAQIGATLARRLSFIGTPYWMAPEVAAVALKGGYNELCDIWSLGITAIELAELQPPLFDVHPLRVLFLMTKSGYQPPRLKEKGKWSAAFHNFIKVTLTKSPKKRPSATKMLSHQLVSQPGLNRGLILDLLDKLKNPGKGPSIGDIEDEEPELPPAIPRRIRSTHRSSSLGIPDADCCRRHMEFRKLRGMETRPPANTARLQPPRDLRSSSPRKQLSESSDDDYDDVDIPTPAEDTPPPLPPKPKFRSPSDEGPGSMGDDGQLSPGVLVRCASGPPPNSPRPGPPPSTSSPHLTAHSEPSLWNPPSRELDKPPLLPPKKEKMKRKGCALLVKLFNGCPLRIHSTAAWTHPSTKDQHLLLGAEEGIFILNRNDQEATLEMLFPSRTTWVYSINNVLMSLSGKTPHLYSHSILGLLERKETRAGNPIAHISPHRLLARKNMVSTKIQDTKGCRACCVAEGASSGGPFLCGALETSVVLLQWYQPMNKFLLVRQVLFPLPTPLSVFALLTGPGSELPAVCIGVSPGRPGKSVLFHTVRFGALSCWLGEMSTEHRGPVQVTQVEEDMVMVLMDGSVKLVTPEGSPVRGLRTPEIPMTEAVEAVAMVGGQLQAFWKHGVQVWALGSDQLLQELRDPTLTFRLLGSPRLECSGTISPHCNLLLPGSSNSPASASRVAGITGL
T1 sequence (P12931 whole entry): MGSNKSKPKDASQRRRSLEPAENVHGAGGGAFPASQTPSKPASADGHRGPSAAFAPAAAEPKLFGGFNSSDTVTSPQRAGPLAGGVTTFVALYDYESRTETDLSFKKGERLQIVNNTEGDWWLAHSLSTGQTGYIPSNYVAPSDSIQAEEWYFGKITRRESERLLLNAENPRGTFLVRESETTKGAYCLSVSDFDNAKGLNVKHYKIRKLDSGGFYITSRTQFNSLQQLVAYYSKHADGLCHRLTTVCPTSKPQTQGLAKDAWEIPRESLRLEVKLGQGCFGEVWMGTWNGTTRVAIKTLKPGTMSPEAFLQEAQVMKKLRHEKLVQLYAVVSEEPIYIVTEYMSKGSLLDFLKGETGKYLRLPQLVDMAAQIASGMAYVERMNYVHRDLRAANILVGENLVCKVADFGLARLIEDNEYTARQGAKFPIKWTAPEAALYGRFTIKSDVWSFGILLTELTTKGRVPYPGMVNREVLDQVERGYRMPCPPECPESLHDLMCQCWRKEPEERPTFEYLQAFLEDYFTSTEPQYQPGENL

In the case of `Cc1ccc(NC(=O)c2cc(C(F)(F)F)ccn2)cc1C1=Cc2cnc(Nc3cncs3)nc2N2CCN=C12` [Compound 256, N-(4-methyl-3-(2-(thiazol-5-ylamino)-8,9-dihydroimidazo[1′,2′:1,6]pyrido[2,3-d]pyrimidin-6-yl)phenyl)-4-(trifluoromethyl)picolinamide], in series [1], the AUC (commonly the area under the concentration-time curve, a measure of exposure) amounted to 11700 ± 1430 ng·h/mL; the Cmax – broadly, the maximum level reached in the sampled fluid or tissue – was 1180 ± 193 ng/mL; the Tmax (as a rule, the time at which the peak concentration occurs) was found to be 1.33 ± 0.58 h.

For `Cc1ccc(NC(=O)c2cc(C(F)(F)F)ccn2)cc1C1=Cc2cnc(Nc3ccn(C)n3)nc2N2CCN=C12` [Compound 234, N-(4-methyl-3-(2-((1-methyl-1H-pyrazol-3-yl)amino)-8,9-dihydroimidazo[1′,2′:1,6]pyrido[2,3-d]pyrimidin-6-yl)phenyl)-4-(trifluoromethyl)picolinamide], at HPK1 (MAP4K1), the IC50 (commonly the concentration needed to halve the response being measured) is below 0.1 µM. Besides, in series [1], the AUC stood at 20500 ± 2190 ng·h/mL, the concentration peaked (Cmax) at 1630 ± 151 ng/mL and the Tmax was 2 h.

On to `Cc1ccc(NC(=O)c2cc(C(C)(C)C#N)ccn2)cc1C1=Cc2cnc(Nc3cnn(C)c3)nc2N2CCN=C12` [Compound 199, 4-(2-cyanopropan-2-yl)-N-(4-methyl-3-(2-((1-methyl-1H-pyrazol-4-yl)amino)-8,9-dihydroimidazo[1′,2′:1,6]pyrido[2,3-d]pyrimidin-6-yl)phenyl)picolinamide], for which, in series [1], the AUC is 1730 ± 619 ng·h/mL, the Cmax was 245 ± 37 ng/mL and the Tmax is 2 h.

In turn, `Cc1csc(Nc2ncc3c(n2)N2CCN=C2C(c2cc(NC(=O)c4cc(C(F)(F)F)ccn4)ccc2C)=C3)n1` [Compound 233, N-(4-methyl-3-(2-((4-methylthiazol-2-yl)amino)-8,9-dihydroimidazo[1′,2′:1,6]pyrido[2,3-d]pyrimidin-6-yl)phenyl)-4-(trifluoromethyl)picolinamide] gave an IC50 against HPK1 (MAP4K1) below 0.1 µM. Further, in series [1], the AUC turned out to be 12000 ± 2750 ng·h/mL, the highest level (Cmax) was 893 ± 258 ng/mL and the Tmax is 6.67 ± 2.31 h.

For the compound `Cc1cc(F)c(NC(=O)c2cc(C(C)(C)C#N)ccn2)cc1C1=Cc2cnc(Nc3cnn(C)c3)nc2N2CCN=C12` [Compound 202, 4-(2-cyanopropan-2-yl)-N-(2-fluoro-4-methyl-5-(2-((1-methyl-1H-pyrazol-4-yl)amino)-8,9-dihydroimidazo[1′,2′:1,6]pyrido[2,3-d]pyrimidin-6-yl)phenyl)picolinamide], in series [1], the F was determined as 56 ± 9%; the Vd was found to be 9.64 ± 1.99 L/kg; the half-life – broadly, the time in which the quantity being followed falls by half – was 3.99 ± 0.72 h; the clearance is 27.8 ± 1 mL/min/kg. In series [1], the exposure (AUC) stood at 8160 ± 1270 ng·h/mL, the peak level (Cmax) was 839 ± 59 ng/mL and the Tmax worked out at 1.67 ± 0.58 h.

At HPK1 (MAP4K1), `CNc1ncc2c(n1)N1CCN=C1C(c1cc(NC(=O)c3cc(C(C)(C)C#N)ccn3)ccc1C)=C2` [Compound 163, 4-(2-cyanopropan-2-yl)-N-(4-methyl-3-(2-(methylamino)-8,9-dihydroimidazo[1′,2′:1,6]pyrido[2,3-d]pyrimidin-6-yl)phenyl)picolinamide] came in with an IC50 below 0.1 µM. In addition, in series [1], the F is recorded as 74.6 ± 54%, the Vd came to 6.61 ± 1.04 L/kg, the half-life is 1.57 ± 0.2 h and the clearance turned out to be 48.8 ± 5.8 mL/min/kg. In series [1], the AUC amounted to 6320 ± 4580 ng·h/mL, the Cmax is 1100 ± 497 ng/mL and the time to peak (Tmax) worked out at 1.33 ± 0.58 h.

`Cc1ncc(Nc2ncc3c(n2)N2CCN=C2C(c2cc(NC(=O)c4cc(C(F)(F)F)ccn4)ccc2C)=C3)s1` [Compound 231, N-(4-methyl-3-(2-((2-methylthiazol-5-yl)amino)-8,9-dihydroimidazo[1′,2′:1,6]pyrido[2,3-d]pyrimidin-6-yl)phenyl)-4-(trifluoromethyl)picolinamide] displayed an IC50 at HPK1 (MAP4K1) below 0.1 µM. Besides, in series [1], the AUC came to 16200 ± 2100 ng·h/mL, the highest level (Cmax) was 1190 ± 302 ng/mL and the Tmax was 1.67 ± 0.58 h.

For the compound `Cc1cc(Nc2ncc3c(n2)N2CCN=C2C(c2cc(NC(=O)c4cc(C(F)(F)F)ccn4)ccc2C)=C3)sn1` [Compound 242, N-(4-methyl-3-(2-((3-methylisothiazol-5-yl)amino)-8,9-dihydroimidazo[1′,2′:1,6]pyrido[2,3-d]pyrimidin-6-yl)phenyl)-4-(trifluoromethyl)picolinamide], in series [1], the AUC was found to be 36900 ± 4060 ng·h/mL, the concentration peaked (Cmax) at 3060 ± 253 ng/mL and the Tmax turned out to be 1.67 ± 0.58 h.

In the case of `Fc1ccc(Nc2ncc3c(n2)N2CCN=C2C(c2ccccc2Cl)=C3)cc1` [Compound 19, 6-(2-chlorophenyl)-N-(4-fluorophenyl)-8,9-dihydroimidazo[1′,2′:1,6]pyrido[2,3-d]pyrimidin-2-amine], the IC50 on SRC (read-out: SRC IC50) was below 0.1 µM; at PAK1, above 10 µM.

Take `Cc1cc(F)c(NC(=O)c2cc(C(C)(C)C#N)ccn2)cc1C1=Cc2cnc(NC3COC3)nc2N2CCN=C12` [Compound 181, 4-(2-cyanopropan-2-yl)-N-(2-fluoro-4-methyl-5-(2-(oxetan-3-ylamino)-8,9-dihydroimidazo[1′,2′:1,6]pyrido[2,3-d]pyrimidin-6-yl)phenyl)picolinamide]: at HPK1 (MAP4K1), the IC50 was below 0.1 µM. For the same compound, in series [1], the F was determined as 58.1 ± 6.1%, the Vd was 4.78 ± 1.21 L/kg, the half-life is 2.01 ± 0.82 h and the clearance is 28.5 ± 3.8 mL/min/kg. For the same compound, in series [1], the AUC was determined as 8610 ± 903 ng·h/mL, the Cmax was determined as 1760 ± 380 ng/mL and the Tmax is 2 h.

Turning to `Fc1cc(Nc2ncc3c(n2)N2CCN=C2C(c2ccc(Cl)cc2)=C3)ccc1N1CCNCC1` [Compound 26, 6-(4-chlorophenyl)-N-(3-fluoro-4-(piperazin-1-yl)phenyl)-8,9-dihydroimidazo[1′,2′:1,6]pyrido[2,3-d]pyrimidin-2-amine], the IC50 was below 0.1 µM on SRC (read-out: SRC IC50) and 0.1 to 10 µM at PAK1.

Take `Fc1cc(N2CCNCC2)ccc1Nc1ncc2c(n1)N1CCN=C1C(c1ccc(Cl)cc1Cl)=C2` [Compound 7, 6-(2,4-dichlorophenyl)-N-(2-fluoro-4-(piperazin-1-yl)phenyl)-8,9-dihydroimidazo[1′,2′:1,6]pyrido[2,3-d]pyrimidin-2-amine]: the IC50 was below 0.1 µM on SRC and above 10 µM at PAK1.

On to `CNc1ncc2c(n1)N1CCCN=C1C(c1ccc(N3CCN(C)C3=O)cc1Cl)=C2` [Compound 71, 1-(3-chloro-4-(2-(methylamino)-9,10-dihydro-8H-pyrido[1,6-a:2,3-d′]dipyrimidin-6-yl)phenyl)-3-methylimidazolidin-2-one], for which the IC50 on SRC (read-out: SRC IC50) and against PAK1 was above 10 µM in each case.

In the case of `CNc1ncc2c(n1)N1CCN=C1C(c1ccc(N3CCN(C)C3=O)cc1Cl)=C2` [Compound 23, 1-(3-chloro-4-(2-(methylamino)-8,9-dihydroimidazo[1′,2′:1,6]pyrido[2,3-d]pyrimidin-6-yl)phenyl)-3-methylimidazolidin-2-one], the IC50 was above 10 µM at SRC (read-out: SRC IC50) and 0.1 to 10 µM against PAK1.

Regarding `Clc1ccc(C2=Cc3cnc(Nc4ccncc4)nc3N3CCN=C23)c(Cl)c1` [Compound 47, 6-(2,4-dichlorophenyl)-N-(pyridin-4-yl)-8,9-dihydroimidazo[1′,2′:1,6]pyrido[2,3-d]pyrimidin-2-amine], the IC50 at SRC (read-out: SRC IC50) is 0.1 to 10 µM; against PAK1, above 10 µM.

For `Clc1ccccc1C1=Cc2cnc(Nc3cccnc3)nc2N2CCN=C12` [Compound 15, 6-(2-chlorophenyl)-N-(pyridin-3-yl)-8,9-dihydroimidazo[1′,2′:1,6]pyrido[2,3-d]pyrimidin-2-amine], the IC50 was 0.1 to 10 µM on SRC (read-out: SRC IC50) and above 10 µM against PAK1.

Regarding `Fc1cc(N2CCNCC2)ccc1Nc1ncc2c(n1)N1CCCN=C1C(c1ccc(Cl)cc1Cl)=C2` [Compound 68, 6-(2,4-dichlorophenyl)-N-(2-fluoro-4-(piperazin-1-yl)phenyl)-9,10-dihydro-8H-pyrido[1,6-a:2,3-d′]dipyrimidin-2-amine], the IC50 at SRC (read-out: SRC IC50) was 0.1 to 10 µM; against PAK1, above 10 µM.
